A value given as a limit tells only on which side of the number the result lay.

Sequence of CDK12 complexed with Cyclin K (Q9NYV4 whole entry): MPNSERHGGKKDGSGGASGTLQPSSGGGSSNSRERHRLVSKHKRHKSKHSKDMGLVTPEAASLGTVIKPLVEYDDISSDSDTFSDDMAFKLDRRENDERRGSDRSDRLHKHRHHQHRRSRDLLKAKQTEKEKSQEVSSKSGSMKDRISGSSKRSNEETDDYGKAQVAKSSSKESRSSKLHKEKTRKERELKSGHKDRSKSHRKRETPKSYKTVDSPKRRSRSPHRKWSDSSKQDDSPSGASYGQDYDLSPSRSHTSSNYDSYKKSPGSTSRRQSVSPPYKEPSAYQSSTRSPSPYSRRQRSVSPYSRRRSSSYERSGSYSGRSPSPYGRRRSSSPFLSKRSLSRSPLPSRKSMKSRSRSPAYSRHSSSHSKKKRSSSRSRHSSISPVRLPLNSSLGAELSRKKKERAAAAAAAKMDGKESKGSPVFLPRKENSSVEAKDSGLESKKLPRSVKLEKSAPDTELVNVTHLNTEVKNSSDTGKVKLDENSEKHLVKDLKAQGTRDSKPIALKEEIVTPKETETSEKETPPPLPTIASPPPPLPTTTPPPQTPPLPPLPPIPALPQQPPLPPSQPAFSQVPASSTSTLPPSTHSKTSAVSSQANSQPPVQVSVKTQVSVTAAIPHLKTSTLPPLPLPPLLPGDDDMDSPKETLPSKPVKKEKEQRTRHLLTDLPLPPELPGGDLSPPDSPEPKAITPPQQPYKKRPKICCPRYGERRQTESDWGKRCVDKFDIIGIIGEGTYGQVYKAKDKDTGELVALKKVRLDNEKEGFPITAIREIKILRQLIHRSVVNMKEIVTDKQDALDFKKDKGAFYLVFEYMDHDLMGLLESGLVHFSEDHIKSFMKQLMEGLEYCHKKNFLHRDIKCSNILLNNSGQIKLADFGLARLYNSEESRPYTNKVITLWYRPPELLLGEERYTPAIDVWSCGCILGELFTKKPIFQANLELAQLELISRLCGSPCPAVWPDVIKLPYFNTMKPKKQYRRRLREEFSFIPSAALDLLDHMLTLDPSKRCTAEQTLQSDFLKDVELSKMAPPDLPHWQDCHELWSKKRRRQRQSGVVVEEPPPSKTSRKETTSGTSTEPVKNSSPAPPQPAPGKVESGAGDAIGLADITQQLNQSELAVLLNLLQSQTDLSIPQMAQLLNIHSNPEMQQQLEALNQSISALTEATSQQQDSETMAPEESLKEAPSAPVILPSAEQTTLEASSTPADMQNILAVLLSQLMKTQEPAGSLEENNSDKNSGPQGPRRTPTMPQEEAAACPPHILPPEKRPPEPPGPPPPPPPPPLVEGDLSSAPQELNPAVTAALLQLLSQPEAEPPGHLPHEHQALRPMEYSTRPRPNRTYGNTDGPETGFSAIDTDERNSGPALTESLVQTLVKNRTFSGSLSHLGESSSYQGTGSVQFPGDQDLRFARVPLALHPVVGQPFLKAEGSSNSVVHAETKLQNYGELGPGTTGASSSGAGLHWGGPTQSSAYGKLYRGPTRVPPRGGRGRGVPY
Sequence of CDK12 complexed with Cyclin K (O75909 whole entry partner): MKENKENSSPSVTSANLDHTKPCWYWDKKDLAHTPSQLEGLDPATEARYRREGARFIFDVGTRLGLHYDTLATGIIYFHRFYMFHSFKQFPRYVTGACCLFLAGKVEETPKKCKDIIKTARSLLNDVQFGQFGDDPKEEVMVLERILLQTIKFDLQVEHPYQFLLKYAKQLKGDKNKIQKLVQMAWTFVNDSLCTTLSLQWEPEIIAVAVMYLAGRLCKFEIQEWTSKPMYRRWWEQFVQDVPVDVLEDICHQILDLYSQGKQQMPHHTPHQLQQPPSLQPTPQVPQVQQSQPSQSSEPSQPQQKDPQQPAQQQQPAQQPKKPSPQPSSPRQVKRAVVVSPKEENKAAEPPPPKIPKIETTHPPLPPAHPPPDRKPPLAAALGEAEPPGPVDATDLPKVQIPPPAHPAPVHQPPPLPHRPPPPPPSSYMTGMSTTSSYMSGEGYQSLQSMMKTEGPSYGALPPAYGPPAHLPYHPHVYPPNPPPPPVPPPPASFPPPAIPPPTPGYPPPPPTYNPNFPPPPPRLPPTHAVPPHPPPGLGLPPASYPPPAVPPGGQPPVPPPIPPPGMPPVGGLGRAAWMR

This experiment addresses CDK12 complexed with Cyclin K (Homo sapiens (Human), UniProt Q9NYV4). Briefly: CDK enzymatic assay (HTRF, LANCE Ultra kinase assay). It counts as biochemical. The conditions noted are these: 60 minutes pre-incubation, 1 mM ATP. How it is done:
The following activity of the CDK enzymes in complex with their respective cyclins we assayed: CDK1 complexed with Cyclin B1; CDK2 complexed with Cyclin E1; CDK4 complexed with Cyclin D1; CDK6 complexed with Cyclin D1; CDK6 complexed with Cyclin D3; CDK9 complexed with Cyclin T1; CDK7 complexed with Cyclin H/MAT1; CDK2 complexed with Cyclin A2; CDK5 complexed with p35; CDK12 complexed with Cyclin K; CDK13 complexed with Cyclin K. These in vitro enzyme activity are assayed using homogeneous time-resolved energy transfer (HTRF), which measures phosphorylation of a peptide substrate. The LANCE® Ultra kinase assay (PerkinElmer) uses a ULight™-labeled EIF4E-binding protein 1 (THR37/46) peptide (DYSTTPGGTLFSTTPGTRI) (SEQ ID NO: 1) substrate and a Europium-labeled anti-phospho-4E-BP1 antibody (CDK2, CDK1, CDK4, CDK6, CDK9, CDK12, CDK13) or ULight™-labeled Myelin Basic Protein peptide (VTPRTPPP) (SEQ ID NO: 2) substrate and a Europium-labeled anti-phospho-MBP antibody (CDK7). Each CDK enzyme activity assays utilized human CDK co-expressed as N-terminal GST-tagged protein with its full length cyclin partner using a baculovirus expression system.
Enzyme was pre-incubated with compounds for 30 minutes (CDK1,2,4,6,9) or 60 minutes (CDK7, CDK12, CDK13) prior to addition of ATP and Ulight-peptide (1 mM and 50 nM final, respectively), in assay buffer containing 50 mM HEPES pH 7.5, 1 mM EGTA, 10 mM MgCl2, 2 mM DTT, 0.05 mg/mL BSA, and 0.01% Tween 20.
The reaction was then incubated for 60-90 minutes at room temperature. The reactions were stopped by the addition of EDTA and Europium labeled antibody, for a final concentration of 15 mM and 1.0-1.5 nM, respectively. HTRF signals were read after 15-120 minutes. A ratio of fluorescence transferred to the labeled substrate (665 nm) relative to fluorescence of the Europium donor (620 nm) represents the extent of phosphorylation. Ratios for treated wells were normalized to DMSO only (100% activity) and no enzyme (0% activity) controls. Normalized data was analyzed using a three or four parameter dose response curve to determine IC50 for each compound and are shown in Table A. Control reference inhibitors were included on each plate.
(TR-FRET usually uses a lanthanide donor and a delayed reading to cut background.)
Turning to `N#Cc1cc(C(F)(F)F)cc2ncn([C@H]3CCC[C@@H](Nc4ncc(C(F)(F)F)c(-c5cnn(CC(F)F)c5)n4)C3)c12` [Example 51, 1-((1S,3R)-3-((4-(1-(2,2-Difluoroethyl)-1H-pyrazol-4-yl)-5-(trifluoromethyl)pyrimidin-2-yl)amino)cyclohexyl)-5-(trifluoromethyl)-1H-benzo[d]imidazole-7-carbonitrile], the half-inhibitory concentration (IC50) is 50 to 500 nM. `N#Cc1cncc2ncn([C@H]3CCC[C@@H](Nc4ncc(C(F)(F)F)c(-c5cnn(CC(F)F)c5)n4)C3)c12` [Example 52, 1-((1S,3R)-3-((4-(1-(2,2-Difluoroethyl)-1H-pyrazol-4-yl)-5-(trifluoromethyl)pyrimidin-2-yl)amino)cyclohexyl)-1H-imidazo[4,5-c]pyridine-7-carbonitrile]: the IC50 is below 50 nM. `N#Cc1cc2ncn([C@H]3CCC[C@@H](Nc4ncc(C#N)c(-c5cnn(CC(F)F)c5)n4)C3)c2[n+]([O-])c1` [Example 53, 6-Cyano-3-((1S,3R)-3-((5-cyano-4-(1-(2,2-difluoroethyl)-1H-pyrazol-4-yl)pyrimidin-2-yl)amino)cyclohexyl)-3H-imidazo[4,5-b]pyridine 4-oxide] yielded an IC50 below 50 nM. Then `Cc1cc(F)cc2ncn([C@H]3CCC[C@@H](Nc4ncc(C#N)c(-c5cnn(CC(F)F)c5)n4)C3)c12` [Example 54, 4-(1-(2,2-Difluoroethyl)-1H-pyrazol-4-yl)-2-(((1R,3S)-3-(5-fluoro-7-methyl-1H-benzo[d]imidazol-1-yl)cyclohexyl)amino)pyrimidine-5-carbonitrile], with below 50 nM; and `Cc1cc(C#N)cc2ncn([C@H]3CCC[C@@H](Nc4ncc(C#N)c(-c5cnn(CC(F)F)c5)n4)C3)c12` [Example 55, 1-((1S,3R)-3-((5-Cyano-4-(1-(2,2-difluoroethyl)-1H-pyrazol-4-yl)pyrimidin-2-yl)amino)cyclohexyl)-7-methyl-1H-benzo[d]imidazole-5-carbonitrile], with below 50 nM; and `Cn1cc(-c2cnc(N[C@@H]3CCC[C@H](n4cnc5cc(C#N)cnc54)C3)nc2-c2cnn(CC(F)F)c2)cn1` [Example 56, 3-((1S,3R)-3-((4-(1-(2,2-Difluoroethyl)-1H-pyrazol-4-yl)-5-(1-methyl-1H-pyrazol-4-yl)pyrimidin-2-yl)amino)cyclohexyl)-3H-imidazo[4,5-b]pyridine-6-caronitrile], with above 500 nM. In turn, `N#Cc1cnc2c(c1)ncn2[C@H]1CCC[C@@H](Nc2ncc(-c3cn[nH]c3)c(-c3cnn(CC(F)F)c3)n2)C1` [Example 57, 3-((1S,3R)-3-((4-(1-(2,2-Difluoroethyl)-1H-pyrazol-4-yl)-5-(1H-pyrazol-4-yl)pyrimidin-2-yl)amino)cyclohexyl)-3H-imidazo[4,5-b]pyridine-6-carbonitrile] returned an IC50 of 50 to 500 nM. Turning to `CC(C)(O)Cn1cc(-c2nc(N[C@@H]3CCC[C@H](n4cnc5cc(C#N)cnc54)C3)ncc2C#N)cn1` [Example 58, 3-((1S,3R)-3-((5-Cyano-4-(1-(2-hydroxy-2-methylpropyl)-1H-pyrazol-4-yl)pyrimidin-2-yl)amino)cyclohexyl)-3H-imidazo[4,5-b]pyridine-6-carbonitrile], the half-maximal inhibitory concentration (IC50) was below 50 nM. For `N#Cc1cnc2c(c1)ncn2[C@H]1CCC[C@@H](Nc2ncc(C#N)c(-c3cnn(C4CNC4)c3)n2)C1` [Example 59, 3-((1S,3R)-3-((4-(1-(Azetidin-3-yl)-1H-pyrazol-4-yl)-5-cyanopyrimidin-2-yl)amino)cyclohexyl)-3H-imidazo[4,5-b]pyridine-6-carbonitrile], the IC50 was below 50 nM. The molecule `N#Cc1cnc2c(c1)ncn2[C@H]1CCC[C@@H](Nc2ncc(C#N)c(-c3cnn(CCN4CCOCC4)c3)n2)C1` [Example 60, 3-((1S,3R)-3-((5-Cyano-4-(1-(2-morpholinoethyl)-1H-pyrazol-4-yl)pyrimidin-2-yl)amino)cyclohexyl)-3H-imidazo[4,5-b]pyridine-6-carbonitrile] gave an IC50 of 50 to 500 nM. Molecule `Cn1cnc(-c2nc(N[C@@H]3CCC[C@H](n4cnc5cc(C#N)cnc54)C3)ncc2C#N)c1` [Example 61, 3-((1S,3R)-3-((5-Cyano-4-(1-methyl-1H-imidazol-4-yl)pyrimidin-2-yl)amino)cyclohexyl)-3H-imidazo[4,5-b]pyridine-6-carbonitrile] displayed an IC50 below 50 nM. Then `N#Cc1cnc2c(c1)ncn2[C@H]1CCC[C@@H](Nc2ncc(C#N)c(-c3cnn(CC(F)(F)F)c3)n2)C1` [Example 62, 3-((1S,3R)-3-((5-Cyano-4-(1-(2,2,2-trifluoroethyl)-1H-pyrazol-4-yl)pyrimidin-2-yl)amino)cyclohexyl)-3H-imidazo[4,5-b]pyridine-6-carbonitrile], with below 50 nM. Then `N#Cc1cnc2c(c1)ncn2[C@H]1CCC[C@@H](Nc2ncc(C#N)c(-c3cnn(C4CCOCC4)c3)n2)C1` [Example 63, 3-((1S,3R)-3-((5-Cyano-4-(1-(tetrahydro-2H-pyran-4-yl)-1H-pyrazol-4-yl)pyrimidin-2-yl)amino)cyclohexyl)-3H-imidazo[4,5-b]pyridine-6-carbonitrile], with below 50 nM; and `Cn1cc(-c2nc(N[C@@H]3CCC[C@H](n4cnc5cc(C#N)cnc54)C3)ncc2C#N)cn1` [Example 64, 3-((1S,3R)-3-((5-Cyano-4-(1-methyl-1H-pyrazol-4-yl)pyrimidin-2-yl)amino)cyclohexyl)-3H-imidazo[4,5-b]pyridine-6-carbonitrile], with below 50 nM.

On to `N#Cc1cnc2c(c1)ncn2[C@H]1CCC[C@@H](Nc2ncc(C#N)c(-c3cnn(-c4ccccc4)c3)n2)C1` [Example 65, 3-((1S,3R)-3-((5-Cyano-4-(1-phenyl-1H-pyrazol-4-yl)pyrimidin-2-yl)amino)cyclohexyl)-3H-imidazo[4,5-b]pyridine-6-carbonitrile], for which the IC50 is below 50 nM. For the molecule `N#Cc1cnc2c(c1)ncn2[C@H]1CCC[C@@H](Nc2ncc(C#N)c(-c3cnn(C4COC4)c3)n2)C1` [Example 66, 3-((1S,3R)-3-((5-Cyano-4-(1-(oxetan-3-yl)-1H-pyrazol-4-yl)pyrimidin-2-yl)amino)cyclohexyl)-3H-imidazo[4,5-b]pyridine-6-carbonitrile], the IC50 is below 50 nM. Molecule `CC(O)Cn1cc(-c2nc(N[C@@H]3CCC[C@H](n4cnc5cc(C#N)cnc54)C3)ncc2C#N)cn1` (stereo partly drawn) [Example 67, 3-((1S,3R)-3-((5-Cyano-4-(1-(2-hydroxypropyl)-1H-pyrazol-4-yl)pyrimidin-2-yl)amino)cyclohexyl)-3H-imidazo[4,5-b]pyridine-6-carbonitrile] registered a 50% inhibitory concentration (IC50) below 50 nM.

In turn, `N#Cc1cnc2c(c1)ncn2[C@H]1CCC[C@@H](Nc2ncc(C#N)c(-c3cnn(CCO)c3)n2)C1` [Example 68, 3-((1S,3R)-3-((5-Cyano-4-(1-(2-hydroxyethyl)-1H-pyrazol-4-yl)pyrimidin-2-yl)amino)cyclohexyl)-3H-imidazo[4,5-b]pyridine-6-carbonitrile] gave a half-maximal inhibitory concentration (IC50) below 50 nM. For `N#Cc1cnc2c(c1)ncn2[C@H]1CCC[C@@H](Nc2ncc(C#N)c(-c3cnn(CC4CC4)c3)n2)C1` [Example 69, 3-((1S,3R)-3-((5-Cyano-4-(1-(cyclopropylmethyl)-1H-pyrazol-4-yl)pyrimidin-2-yl)amino)cyclohexyl)-3H-imidazo[4,5-b]pyridine-6-carbonitrile], the 50% inhibitory concentration (IC50) was below 50 nM.

Molecule `N#Cc1cnc2c(c1)ncn2[C@H]1CCC[C@@H](Nc2ncc(C#N)c(-c3cnn(CCF)c3)n2)C1` [Example 70, 3-((1S,3R)-3-((5-Cyano-4-(1-(2-fluoroethyl)-1H-pyrazol-4-yl)pyrimidin-2-yl)amino)cyclohexyl)-3H-imidazo[4,5-b]pyridine-6-carbonitrile] displayed an IC50 below 50 nM. Molecule `N#Cc1cnc2c(c1)ncn2[C@H]1CCC[C@@H](Nc2ncc(C#N)c(-c3cnn(C4CC4)c3)n2)C1` [Example 71, 3-((1S,3R)-3-((5-Cyano-4-(1-cyclopropyl-1H-pyrazol-4-yl)pyrimidin-2-yl)amino)cyclohexyl)-3H-imidazo[4,5-b]pyridine-6-carbonitrile] returned an IC50 below 50 nM. Molecule `CC(C)n1cc(-c2nc(N[C@@H]3CCC[C@H](n4cnc5cc(C#N)cnc54)C3)ncc2C#N)cn1` [Example 72, 3-((1S,3R)-3-((5-Cyano-4-(1-isopropyl-1H-pyrazol-4-yl)pyrimidin-2-yl)amino)cyclohexyl)-3H-imidazo[4,5-b]pyridine-6-carbonitrile] gave a concentration for half-maximal inhibition (IC50) below 50 nM. As for `CCn1cc(-c2nc(N[C@@H]3CCC[C@H](n4cnc5cc(C#N)cnc54)C3)ncc2C#N)cn1` [Example 73, 3-((1S,3R)-3-((5-Cyano-4-(1-ethyl-1H-pyrazol-4-yl)pyrimidin-2-yl)amino)cyclohexyl)-3H-imidazo[4,5-b]pyridine-6-carbonitrile], the IC50 was below 50 nM.

One may read the IC50 as the concentration that gives 50% inhibition. Low values mean greater potency in that assay, high ones weaker potency in that assay.
